Test results: patent US10519177B2, “Heterocyclic compounds and uses thereof” (Plexxikon Inc., priority 2013, dated 2019)
Where two headings read alike, the source gives them in different places.

Tests used:
[1] = molecular target: BRD4-BD12 (1-477) (Homo sapiens (Human), UniProt O60885); test: Alphascreen binding assay BRD4-BD12; details: BRD4(1 2) H4; read-out: Biochemical activity (IC50 μM) BRD4(1 2) H4
Procedure, shortened: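 First, compound was preincubated 1 h at room temperature with the His-tagged BRD4 protein (BD1 44-164 or tandem BD12 1-477) and acetylated H4 peptide. Next, donor and acceptor beads were added at 7.5 μg/ml final. After 30 min, AlphaScreen emission was recorded.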

[2] = system: bromodomain; test: at least one of the bromodomain cell assays of Example 57; type: cell-based; details: at least one of the bromodomain cell assays described in Example 57; read-out: IC50 in at least one of the bromodomain cell assays
[3] = system: MV-4-11 cells; test: Oncology cell growth assay MV-4-11 (CellTiter Glo); type: cell-based; details: Homo sapiens, MV4-11, 72 h, read-out: Cell activity (IC50 μM) MV-4-11 3d-Growth
Procedure, shortened: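 MV-4-11 AML cells (MLL-AF4), 3000 per well, exposed to 8-point 1:3 compound titration from 10 μM top concentration (0.2% DMSO) for 72 h. Viability by CellTiter Glo luminescence, normalized to DMSO controls; pIC50 from four-parameter curve fit.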

Compound	IC50 [1] [µM]	IC50 [2] [µM]	IC50 ([3]; MV-4-11, 3d growth) [µM]	IC50 [3] [µM]
Cc1noc(C)c1-c1cnc2c(-c3ccc(CCC(=O)O)cc3)cn(CC3CCC(F)(F)CC3)c2c1 [P-0530, 3-[4-[1-[(4,4-difluorocyclohexyl)methyl]-6-(3,5-dimethylisoxazol-4-yl)pyrrolo[3,2-b]pyridin-3-yl]phenyl]propanoic acid]	< 1	< 10	< 1	
Cc1cc(-c2cn(CC3CCC(F)(F)CC3)c3cc(-c4c(C)noc4C)cnc23)ccc1C(=O)O [P-0483, 4-[1-[(4,4-difluorocyclohexyl)methyl]-6-(3,5-dimethylisoxazol-4-yl)pyrrolo[3,2-b]pyridin-3-yl]-2-methyl-benzoic acid]	< 1	< 10	< 1	
Cc1noc(C)c1-c1cnc2c(-c3ccc(C(=O)O)nc3)cn(CC3(F)CCCCC3)c2c1 [P-0455, 5-[6-(3,5-dimethylisoxazol-4-yl)-1-[(1-fluorocyclohexyl)methyl]pyrrolo[3,2-b]pyridin-3-yl]pyridine-2-carboxlic acid]	< 1	< 10	< 1	
Cc1noc(C)c1-c1cnc2c(-c3ccc(C(C)(C)C(=O)O)cc3)cn(CC3(C)CCOCC3)c2c1 [P-0778, 2-[4-[6-(3,5-dimethylisoxazol-4-yl)-1-[(4-methyltetrahydropyran-4-yl)methyl]pyrrolo[3,2-b]pyridin-3-yl]phenyl]-2-methyl-propanoic acid]	< 1	< 10	1 to 10	
Cc1cc(-c2cnc3ccn(CC4CCC(F)(F)CC4)c3c2)cnn1 [P-0286]	< 1	< 10		10 to 200
Cc1noc(C)c1-c1cnc2c(-c3ccc(C(=O)O)cc3)cn([C@@H](c3ccccc3)c3ccccn3)c2c1 [P-0711, 4-[6-(3,5-dimethylisoxazol-4-yl)-1-[(S)-phenyl(2-pyridyl)methyl]pyrrolo[3,2-b]pyridin-3-yl]benzoic acid]	< 1	< 10	< 1	
Cc1noc(C)c1-c1cnc2c(I)cn(C(CC#N)C3CCCC3)c2c1 (stereo not drawn) [P-0251, 3-cyclopentyl-3-[6-(3,5-dimethylisoxazol-4-yl)-3-iodo-pyrrolo[3,2-b]pyridin-1-yl]propanenitrile]	< 1	< 10		< 1
CNC(=O)Nc1ccc(-c2cn(CC3CCC(F)(F)CC3)c3cc(-c4c(C)noc4C)cnc23)cc1 [P-0561, 1-[4-[1-[(4,4-difluorocyclohexyl)methyl]-6-(3,5-dimethylisoxazol-4-yl)pyrrolo[3,2-b]pyridin-3-yl]phenyl]-3-methyl-urea]	< 1	< 10	< 1	
Cc1noc(C)c1-c1cnc2c(-c3ccc(C(=O)O)c(O)c3)cn(CC3CCC(F)(F)CC3)c2c1 [P-0487, 4-[1-[(4,4-difluorocyclohexyl)methyl]-6-(3,5-dimethylisoxazol-4-yl)pyrrolo[3,2-b]pyridin-3-yl]-2-hydroxy-benzoic acid]	< 1	< 10	< 1	
CCn1cc(-c2cn(CC3CCC(F)(F)CC3)c3cc(-c4c(C)noc4C)cnc23)cn1 [P-0409, 4-[1-[(4,4-difluorocyclohexyl)methyl]-3-(1-ethylpyrazol-4-yl)pyrrolo[3,2-b]pyridin-6-yl]-3,5-dimethyl-isoxazole]	< 1	< 10		< 1
[2H]C([2H])(C1CCC(F)(F)CC1)n1cc(-c2ccc(OC)nc2)c2ncc(-c3c(C)noc3C)cc21 [P-0343, 4-[1-[dideuterio-(4,4-difluorocyclohexyl)methyl]-3-(6-methoxy-3-pyridyl)pyrrolo[3,2-b]pyridin-6-yl]-3,5-dimethyl-isoxazole]	< 1	< 10		< 1
Cc1noc(C)c1-c1cnc2c(-c3ccc(C(=O)O)c(F)c3F)cn(CC3(F)CCCCC3)c2c1 [P-0476, 4-[6-(3,5-dimethylisoxazol-4-yl)-1-[(1-fluorocyclohexyl)methyl]pyrrolo[3,2-b]pyridin-3-yl]-2,3-difluoro-benzoic acid]	< 1	< 10	< 1	
[2H]C([2H])(C1CCC(F)(F)CC1)n1cc(-c2cnn(C(=O)OC(C)(C)C)c2)c2ncc(-c3c(C)noc3C)cc21 [P-0362, tert-butyl 4-[1-[dideuterio-(4,4-difluorocyclohexyl)methyl]-6-(3,5-dimethylisoxazol-4-yl)pyrrolo[3,2-b]pyridin-3-yl]pyrazole-1-carboxylate]	< 1	< 10		< 1
Cc1noc(C)c1-c1cnc2c(-c3ccc(C(=O)O)cc3)cn(CC3CCC4(CC3)CC4)c2c1 [P-0582, 4-[6-(3,5-dimethylisoxazol-4-yl)-1-(spiro[2.5]octan-6-ylmethyl)pyrrolo[3,2-b]pyridin-3-yl]benzoic acid]	< 1	< 10	< 1	
CC(=O)Nc1ccc(-c2cn(CC3(F)CCCCC3)c3cc(-c4c(C)noc4C)cnc23)cc1 [P-0496, N-[4-[6-(3,5-dimethylisoxazol-4-yl)-1-[(1-fluorocyclohexyl)methyl]pyrrolo[3,2-b]pyridin-3-yl]phenyl]acetamide]	< 1	< 10	< 1	
Cc1noc(C)c1-c1cnc2c(-c3ccc(C(=O)NC4CC4)nc3)cn([C@@H](C)c3ccccn3)c2c1 [P-0543, N-cyclopropyl-5-[6-(3,5-dimethylisoxazol-4-yl)-1-[(1S)-1-(2-pyridyl)ethyl]pyrrolo[3,2-b]pyridin-3-yl]pyridine-2-carboxamide]	< 1	< 10	< 1	
[2H]C([2H])(C1CCC(F)(F)CC1)n1cc(-c2cn(C)nc2C)c2ncc(-c3c(C)noc3C)cc21 [P-0335, 4-[1-[dideuterio-(4,4-difluorocyclohexyl)methyl]-3-(1,3-dimethylpyrazol-4-yl)pyrrolo[3,2-b]pyridin-6-yl]-3,5-dimethyl-isoxazole]	< 1	< 10		< 1
Cc1noc(C)c1-c1cnc2c(-c3ccc(C#N)nc3)cn(CC3CCC(F)(F)CC3)c2c1 [P-0594, 5-[1-[(4,4-difluorocyclohexyl)methyl]-6-(3,5-dimethylisoxazol-4-yl)pyrrolo[3,2-b]pyridin-3-yl]pyridine-2-carbonitrile]	< 1	< 10	< 1	
Cc1noc(C)c1-c1cnc2c(-c3ccc(O)cc3)cn(CC3(F)CCCCC3)c2c1 [P-0523, 4-[6-(3,5-dimethylisoxazol-4-yl)-1-[(1-fluorocyclohexyl)methyl]pyrrolo[3,2-b]pyridin-3-yl]phenol]	< 1	< 10	< 1	
Cc1noc(C)c1-c1cnc2c(-c3ccc(C(=O)O)c(O)c3)cn(CC3(F)CCCCC3)c2c1 [P-0502, 4-[6-(3,5-dimethylisoxazol-4-yl)-1-[(1-fluorocyclohexyl)methyl]pyrrolo[3,2-b]pyridin-3-yl]-2-hydroxy-benzoic acid]	< 1	< 10	< 1	
COc1ccc(-c2cn(CC3(F)CCCCC3)c3cc(-c4c(C)noc4C)cnc23)cn1 [P-0470, 4-[1-[(1-fluorocyclohexyl)methyl]-3-(6-methoxy-3-pyridyl)pyrrolo[3,2-b]pyridin-6-yl]-3,5-dimethyl-isoxazole]	< 1	< 10	< 1	
Cc1noc(C)c1-c1cnc2c(-c3ccc(C(=O)O)cc3)cn(CC3(C)CCOCC3)c2c1 [P-0774, 4-[6-(3,5-dimethylisoxazol-4-yl)-1-[(4-methyltetrahydropyran-4-yl)methyl]pyrrolo[3,2-b]pyridin-3-yl]benzoic acid]	< 1	< 10	< 1	
Cc1noc(C)c1-c1cnc2c(-c3cccc(S(N)(=O)=O)c3)cn(CC3(F)CCCCC3)c2c1 [P-0475, 3-[6-(3,5-dimethylisoxazol-4-yl)-1-[(1-fluorocyclohexyl)methyl]pyrrolo[3,2-b]pyridin-3-yl]benzenesulfonamide]	< 1	< 10	< 1	
CCOC(=O)c1ccc(-n2cc(CC3CCC(F)(F)CC3)c3cc(-c4c(C)noc4C)cnc32)c(F)c1 [P-0441, ethyl 4-[3-[(4,4-difluorocyclohexyl)methyl]-5-(3,5-dimethylisoxazol-4-yl)pyrrolo[2,3-b]pyridin-1-yl]-3-fluoro-benzoate]	< 1	< 10	1 to 10	
Cc1ccc(-c2cn(CC3CCC(F)(F)CC3)c3cc(-c4c(C)noc4C)cnc23)cn1 [P-0397, 4-[1-[(4,4-difluorocyclohexyl)methyl]-3-(6-methyl-3-pyridyl)pyrrolo[3,2-b]pyridin-6-yl]-3,5-dimethyl-isoxazole]	< 1	< 10		< 1
Cc1noc(C)c1-c1cnc2c(C#CC(=O)O)cn(CC3CCC(F)(F)CC3)c2c1 [P-0462, 3-[1-[(4,4-difluorocyclohexyl)methyl]-6-(3,5-dimethylisoxazol-4-yl)pyrrolo[3,2-b]pyridin-3-yl]prop-2-ynoic acid]	< 1	< 10	1 to 10	
Cc1noc(C)c1-c1cnc2c(-c3ccc(-c4nnn[nH]4)cc3)cn([C@@H](C)c3ccccn3)c2c1 [P-0568, 3,5-dimethyl-4-[1-[(1S)-1-(2-pyridyl)ethyl]-3-[4-(1H-tetrazol-5-yl)phenyl]pyrrolo[3,2-b]pyridin-6-yl]isoxazole]	< 1	< 10	< 1	
